Results: patent US8202998B2, “Salts of benzimidazolyl pyridyl ethers and formulations thereof” (Novartis AG, priority 2006, dated 2012)

Columns and labels:
[1] = Stability: degradation products (DP) and appearance (color) under stress conditions; assay type: physicochemical; set-up: key to CL: A: No change of color; B: Slight discoloration; C: Medium discoloration; D: Strong discoloration; ↓: Suspension; *: Clear solution after stress test; —: no change; x: test not performed
Procedure: Column: Symmetry C18 (Waters), 3.5 μm, 3×150 mm
Mobile phase: A=0.1% TFA in water; B=acetonitrile
Gradient: 20 to 100% B in 10 minutes
Column temperature: 40° C.
Stability of the three salts with respect to color and degradation products were assessed under various conditions.

[2] = Determination of solubility at 25° C.; assay type: physicochemical; details: for solubility: thermodynamic from solid; for Solid: line after Water under Solubility; for Aqueous solubility (in words): summary of Table 8
Procedure: Excess solids were equilibrated in each solvent for over 24 hours at 25° C.±0.1. Concentration in aqueous supernatant was measured by UV and HPLC and concentrations in organic solvents by gravimetry.

[3] = Intrinsic dissolution rate; assay type: physicochemical; details: 37° C.
Procedure: The intrinsic dissolution rate measurements were carried out in 0.5 cm^2 VanKel die assemblies and a pellet pressure of 1 ton. The dissolution was measured using a Cary 50 spectrophotometer with a stirring rate of 200 rpm. The solution medium was held at 37° C. and measurements were made at 276 nm.

[4] = Hygroscopicity (sorption/desorption); assay type: physicochemical; details: for Hygroscopicity: After 1 day at 80% r.h. / Hygroscopicity: After 1 day at 95% r.h.: 25° C.
Procedure: Sorption/desorption isotherms were measured using VTI vapor sorption device (DVS-1). Measurements were carried out at 25° C.

[5] = Polymorphism behavior: crystal modification after 24 hours equilibration; assay type: physicochemical
Procedure: A suspension of 6 mg of drug substance in 300 μl of solvent is prepared. Samples are agitated for ≧24 hour at 22° C.±2° C. The solids are collected and investigated for changes.

[6] = pH of 1% solution or suspension; assay type: physicochemical; details: In water
[7] = Thermogravimetry / loss on drying; assay type: physicochemical; details: for Loss on drying by TG: As is; for Thermogravimetry (weight loss in %): Heating rate 20 K/min
[8] = Effect of grinding on morphic properties; assay type: physicochemical
[9] = Aqueous solubility of salts in deionized water; details: for solubility / solubility at 48 h: deionized water, water, thermodynamic from solid; for pH: pH of the saturated aqueous solutions
[10] = Bioavailability study of API and salts of API in dogs; assay type: in vivo, beagle dogs; details: single 100 mg oral dose
Procedure: For comparison, a microemulsion of the free base was also studied. The study was performed with 4 dogs, weighing 9-15 kg each. A crossover design with a washout period of at least 1 week was used. The dogs were given a single oral dose of 100 mg of test compound, administered under fasting conditions.

[11] = 0.1% solutions or suspensions, 1 week 80° C. or 50° C., Methanol
[12] = 0.1% solutions or suspensions, 1 week 80° C. or 50° C., Water
[13] = 1-2 weeks 50° C., tight container, 1% in mixture 1
[14] = 1-2 weeks 50° C., tight container, 1% in mixture 2
[15] = 1-2 weeks 50° C./75% r.h., 1% in mixture 1
[16] = 1-2 weeks 50° C./75% r.h., 1% in mixture 2
[17] = Solid stage, 1 week 80° C., tight container, Bulk (HPLC)
[18] = Solid state, 1 week 80° C./175% r.h, Bulk (HPLC)
[19] = Solid state, 1 week 80° C./, Bulk (HPLC)
[20] = Xenon light (approx. 1200 kLuxh), Bulk (HPLC)
[21] = 0.1N HCl, 25 °C, simulated gastric fluid, read-out: Solubility (approx. at 25° C.) (HPLC)
[22] = acetonitrile, 25 °C, organic solvent or mixture, read-out: Solubility (approx. at 25° C.)
[23] = aqueous medium at pH 3, 25 °C, pH 3, aqueous buffer, read-out: Solubility (approx. at 25° C.) (HPLC)
[24] = aqueous medium at pH 4.5, 25 °C, pH 4.5, aqueous buffer, read-out: Solubility (approx. at 25° C.) (HPLC)
[25] = methanol, 25 °C, organic solvent or mixture, read-out: Solubility (approx. at 25° C.)
[26] = water, 25 °C, water, read-out: Solubility (approx. at 25° C.) (HPLC)
[27] = beagle, dog, plasma, fasting, mean and sd

With `CCS(=O)(=O)O.Cn1c(Nc2ccc(C(F)(F)F)cc2)nc2cc(Oc3ccnc(-c4ncc(C(F)(F)F)[nH]4)c3)ccc21` [Esylate, {1-methyl-5-[2-(5-trifluoromethyl-1H-imidazol-2-yl)-pyridin-4-yloxy]-1H-benzoimidazol-2-yl}-(4-trifluoromethyl-phenyl)amine ethanesulfonate] the CL [1, 11] was “A”, the DP [1, 11] was 2.5% and the DP ([1]; 0.1% solutions or suspensions, 1 week 80° C. or 50° C., Methanol, listed as esylate) was 2.7%. The CL [1, 12] was “A↓”, the DP [1, 12] was 0.4% and the CL [1, 13] was “A”. For the same compound, the DP [1, 13] was 0.5%, the CL [1, 14] was “A” and the DP [1, 14] was 0.6%. The CL [1, 15] was “A”, the DP [1, 15] was 1.8% and the CL [1, 16] was “A”. For the same compound, the DP [1, 16] was 0.8%, the CL [1, 17] was “A” and the DP [1, 17] was 0.5%. For the same compound, the DP [1, 18] was 0.6%, the CL [1, 19] was “A” and the DP ([1]; Unstressed) was 0.5%. The CL [1, 20] was “A”, the DP [1, 20] was 0.7% and the solubility [2, 21] was 3700 µg/mL. It also gave a solubility [2, 22] of 2100 µg/mL, a solubility [2, 23] of 2.3 µg/mL and a solubility [2, 24] of 3.7 µg/mL. The Solid [2] was “No change”, the solubility [2, 25] was greater than 50000 µg/mL and the “Measured pH” value ([2]; solubility sample in 0.1N HCl) was 1.4. The “Aqueous solubility (in words)” value [2] was “significantly improves aqueous solubility at all pH levels”, the solubility [2, 26] was 60 µg/mL and the Intrinsic dissolution rate ([3]; HCl 0.1N) was 0.06 mg min^−1 cm^−2. The Intrinsic dissolution rate ([3]; Water) was 0.0036 mg min^−1 cm^−2, the “Hygroscopicity from moisture sorption profiles (in words)” value [4] was “hygroscopic” and the “Hygroscopicity: After 1 day at 80% r.h.” value [4] was 5.3. For the same compound, the “Hygroscopicity: After 1 day at 95% r.h.” value [4] was 14.9, the “Crystal modification after 24 hours equilibration (DSC/XRPD/TG)” value (“Crystal modification … (DSC/XRPD/TG)” for short) ([5]; 2-propanol) was “No change” and the “Crystal modification … (DSC/XRPD/TG)” value ([5]; Acetone) was “No change”. For the same compound, the “Crystal modification … (DSC/XRPD/TG)” value ([5]; Acetonitrile) was “No change”, the “Crystal modification … (DSC/XRPD/TG)” value ([5]; Ethanol) was “No change” and the “Crystal modification … (DSC/XRPD/TG)” value ([5]; Ethyl acetate) was “No change”. The “Crystal modification … (DSC/XRPD/TG)” value ([5]; Methanol) was “No change”, the “Crystal modification … (DSC/XRPD/TG)” value ([5]; PEG400) was “No change” and the “Crystal modification … (DSC/XRPD/TG)” value ([5]; Water) was “No change”. The “pH of 1% solution or suspension” value [6] was 2.2, the “Loss on drying by TG” value [7] was 2.1% and the “Thermogravimetry (weight loss in %)” value [7] was 2.1%. For the same compound, the Effect of grinding [8] was “No change”.
In the case of `Cl.Cn1c(Nc2ccc(C(F)(F)F)cc2)nc2cc(Oc3ccnc(-c4ncc(C(F)(F)F)[nH]4)c3)ccc21` [Hydrochloride, {1-methyl-5-[2-(5-trifluoromethyl-1H-imidazol-2-yl)-pyridin-4-yloxy]-1H-benzoimidazol-2-yl}-(4-trifluoromethyl-phenyl)amine hydrochloride], the solubility [9] is reported as 10 µg/mL, the solubility at 48 h [9] is reported as 457 µg/mL and the pH [9] is reported as 2.079.
With `Cn1c(Nc2ccc(C(F)(F)F)cc2)nc2cc(Oc3ccnc(-c4ncc(C(F)(F)F)[nH]4)c3)ccc21.O=C(O)/C=C\C(=O)O` [Maleate, {1-methyl-5-[2-(5-trifluoromethyl-1H-imidazol-2-yl)-pyridin-4-yloxy]-1H-benzoimidazol-2-yl}-(4-trifluoromethyl-phenyl)amine maleate] the CL [1, 11] was “A”, the DP [1, 11] was 0.4% and the CL [1, 12] was “A↓”. The DP [1, 12] was 0.3%, the CL [1, 13] was “A” and the DP [1, 13] was 0.4%. For the same compound, the CL [1, 14] was “A”, the DP [1, 14] was 0.4% and the CL [1, 15] was “A”. For the same compound, the DP [1, 15] was 1.1%, the CL [1, 16] was “A” and the DP [1, 16] was 0.5%. The “Stability in methanol (in words)” value ([1]; In methanol) was “stable”, the CL [1, 17] was “A” and the DP [1, 17] was 0.7%. For the same compound, the DP [1, 18] was 0.4%, the CL [1, 19] was “A” and the DP ([1]; Unstressed) was 0.3%. The CL [1, 20] was “A”, the DP [1, 20] was 0.3% and the solubility [2, 21] was 2300 µg/mL. For the same compound, the solubility [2, 22] was 4700 µg/mL, the solubility [2, 23] was 0.15 µg/mL and the solubility [2, 24] was 0.03 µg/mL. The Solid [2] was “No change”, the solubility [2, 25] was greater than 50000 µg/mL and the “Measured pH” value ([2]; solubility sample at pH 3) was 3.4. For the same compound, the “Measured pH” value ([2]; solubility sample in 0.1N HCl) was 1.4, the “Aqueous solubility (in words)” value [2] was “higher at low pH and lower in neutral conditions” and the solubility [2, 26] was 10 µg/mL. The Intrinsic dissolution rate ([3]; HCl 0.1N) was 0.03 mg min^−1 cm^−2, the Intrinsic dissolution rate ([3]; Water) was 0.0076 mg min^−1 cm^−2 and the “Hygroscopicity from moisture sorption profiles (in words)” value [4] was “slightly hygroscopic”. For the same compound, the “Hygroscopicity: After 1 day at 80% r.h.” value [4] was 0.8, the “Hygroscopicity: After 1 day at 95% r.h.” value [4] was 1.1 and the “Crystal modification … (DSC/XRPD/TG)” value ([5]; 2-propanol) was “No change”. For the same compound, the “Crystal modification … (DSC/XRPD/TG)” value ([5]; Acetone) was “Change”, the “Crystal modification … (DSC/XRPD/TG)” value ([5]; Acetonitrile) was “Change” and the “Crystal modification … (DSC/XRPD/TG)” value ([5]; Ethanol) was “No change”. The “Crystal modification … (DSC/XRPD/TG)” value ([5]; Ethyl acetate) was “Change”, the “Crystal modification … (DSC/XRPD/TG)” value ([5]; Methanol) was “Change” and the “Crystal modification … (DSC/XRPD/TG)” value ([5]; PEG400) was “Change”. For the same compound, the “Crystal modification … (DSC/XRPD/TG)” value ([5]; Water) was “No change”, the AUC(0-inf) [10, 27] was 29600 ± 5920 ng·h/mL and the Cmax [10, 27] was 1220 ± 320 ng/mL. The half-life [10, 27] was 18.8 ± 7.7 h, the Tmax ([10]; beagle, dog, plasma, fasting, median) was 4 h and the Tlag ([10]; fasting, median) was 0.12 h. The “Absolute F” value ([10]; relative to an iv dose of 1.25 mg/kg) was 12.9 ± 2.6, the “pH of 1% solution or suspension” value [6] was 2.7 and the “Loss on drying by TG” value ([7]; listed as maleate, maleate) was 0.1%. The “Loss on drying by TG” value ([7]; maleate) was 0.11%, the “Thermogravimetry (weight loss in %)” value [7] was 0.11% and the Effect of grinding [8] was “No change”. The solubility [9] was 17 µg/mL, the solubility at 48 h [9] was 96 µg/mL and the pH [9] was 2.415.
